Test results as given in patent US7858820B2, “Solid compositions suitable for oral administration containing non-hygroscopic salts of L-carnitine and the alkanoyl L-carnitines with taurine chloride and glycine chloride” (Sigma-Tau Industrie Farmaceutiche Riunite S.p.A., priority 2001, dated 2010).
Structures can show the parent of a compound that is named as a salt.

Columns and labels:
[1] = Hygroscopicity of the solid salts; assay type: physicochemical; details: for hygroscopicity of the starting material: remark in brackets on the reagent used
[2] = milieu with a high relative humidity content; U.S. Pat. No. 4,602,039; cited from earlier work

SMILES | hygroscopicity of the starting material [1] | further results
CC(=O)O[C@H](CC(=O)[O-])C[N+](C)(C)C [acetyl L-carnitine inner salt] | hygroscopic | –
CCC(=O)O[C@H](CC(=O)O)C[N+](C)(C)C [Example 2, Propionyl L-Carnitine Salt with Taurine Chloride] | – | hygroscopicity of the isolated solid ([1]; white crystalline solid as obtained): non-hygroscopic
CCC(=O)O[C@H](CC(=O)[O-])C[N+](C)(C)C [propionyl L-carnitine inner salt] | hygroscopic | –
C[N+](C)(C)C[C@H](O)CC(=O)[O-].O=C(O)/C=C/C(=O)O [L-carnitine fumarate] | – | hygroscopicity of a prior-art salt [2]: highly non-hygroscopic
NCC(=O)O [glycine hydrochloride] | hygroscopic | –
